Laboratory results: patent US20070021380A1, “Novel drug delivery compositions” (priority 2005, published 2007)
In brackets after ≈: the same amount, converted by molar mass.

Test system: HBV
Assay: Anti-viral activity: viral DNA by Q-PCR in tetracycline-responsive HepAD38 cells
Type: cell-based
Settings: for EC50: HepAD38 cells, viral DNA at day 4 post-induction, Q-PCR; for Improvement Compared to araA: therapeutic effect relative to araA (=1.00)
Description: Tetracycline-responsive cell lines HepAD38 were used (Ladner et al., 1997), hepatoma cells that have been stably transfected with a cDNA copy of the pregenomic RNA of wild-type virus. Withdrawal of tetracycline from the culture medium results in the initiation of viral replication. Cells were cultured at 37° C. in a humidified 5% CO2/air atmosphere in seeding medium, DMEM/Ham's F12 (50/50) supplemented with 10% (v/v) heat-inactivated fetal calf serum, 100 IU/ml penicillin/50 μg/ml streptomycin mix, 400 μg/ml G418, and 0.3 μg/ml tetracycline.
Upon assay initiation, the cells were seeded in 48-well plates at a density of 1.5×10^5/well. After 2-3 days the cultures were induced for viral production by washing with prewarmed PBS and were fed with 200 μl assay medium (seeding medium without tetracycline and G418) with or without the antiviral compounds. Medium was changed after 3 days. The antiviral effect was quantified by measuring levels of viral DNA [isolated (Qiagen) from the cell cultures] at day 4 post-induction, by a real time quantitative PCR (Q-PCR) and analyzed using a SDS 7000 (Applied Biosystems, Foster City, Calif.).
A plasmid containing the full length insert of the HBV genome was used to prepare the standard curve. The amount of viral DNA produced in treated cultures was expressed as a percentage of the mock treated samples. The cytostatic effect of the various compounds was assessed employing the parent hepatoma cell line HepG2. The effect of the compounds on exponentially growing HepG2 cells was evaluated by means of the MTS method (Promega). Briefly, cells were seeded at a density of 3000/well (96 well plate) and were allowed to proliferate for 3 days in the absence or presence of compounds after which time cell density was determined.

Nc1ncnc2c1ncn2[C@@H]1O[C@H](COP(=O)(O)O)[C@@H](O)[C@@H]1O [araAMP, araA-monophosphate]
EC50: 33 µg/mL (≈ 95 µM) | Improvement Compared to araA: 1.35

Nc1ncnc2c1ncn2[C@@H]1O[C@H](CO)[C@@H](O)[C@@H]1O [araA]
EC50: 35 µg/mL (≈ 131 µM) | Improvement Compared to araA: 1.00
